In patent US20240287046A1, “COMPOUNDS AND RADIOLIGANDS FOR TARGETING NEUROTENSIN RECEPTOR AND USES THEREOF” (Full-Life Technologies HK Limited, priority 2022, published 2024):

What was measured:
HT-29 tumor-bearing mice = experiment: Biodistribution of radionuclide labeled complexes in HT-29 tumor-bearing mice; assay type: in vivo, BALB/c nude mice
Method: The BALB/c nude mice (Charles River, Beijing) were utilized to establish the xenografted model for biodistribution study. All animal care and experimental procedure were performed by following the animal protocols approved by the ethics committee of China Institute of Radiation Protection.
Briefly, each mouse was inoculated with approximately 4×10^6 ASPC-1 cells (human pancreatic cancer cell line) or HT-29 cells (human colorectal adenocarcinoma cell line) expressing human NTSR-1 by subcutaneous injection at rear flank. After inoculation, the xenografted tumors were allowed to grow for ˜2-4 weeks till the tumor weight reached to about 0.05 to 0.50 g (0.20 g in average).
Biodistribution studies were performed by administrating the radionuclide labeled test compound at a dose of ˜30-50 μCi (100 μL in 0.9% NaCl, ˜1.11-1.85 MBq, with specific activity 30-250 μCi/nmol) to each animal through tail vein injection.
At different time points after the administration, the mice treated with each compound were euthanized. The tissues and organs of the animals in each group were collected, excised, weighed, and analyzed in a PerkinElmer 2480 WIZARD2γ counter, and the percent injected dose (% ID) and % ID/g of each organ or tissue were calculated.

[1] = test system: ASPC-1 tumor-bearing mice; experiment: SPECT/CT imaging of ^177Lu-labeled complexes; assay type: in vivo; conditions: over 72 hours
Method: ASPC-1 tumor-bearing mice were IV-injected with about 120 μCi of ^177Lu-labeled complexes, then anesthetized under 2% isoflurane/oxygen gas and placed on the scanner. SPECT/CT images were acquired in three bed positions for 30 min using a MILabs SPECT scanner. Whole-body SPECT images were acquired at 1 h, 4 h, 24 and 72 h after injecting the radiotracers.

COc1cccc(OC)c1-c1cc(C(=O)NC2(C(=O)O)C3CC4CC(C3)CC2C4)nn1-c1ccc(OCCCN(C)CCCN(C)C(=O)CN2CCN(CC(=O)[O-])CCN(CC(=O)[O-])CCN(CC(=O)[O-])CC2)cc1C(C)C.[177Lu+3] (stereo not drawn) [^177Lu-I-7]
% ID/g (1 h) Femur (HT-29 tumor-bearing mice; Femur, 1 h): 1.95 ± 1.15 % ID/g | % ID/g (4 h) Femur (HT-29 tumor-bearing mice; Femur, 4 h): 0.56 ± 0.23 % ID/g | % ID/g (24 h) Femur (HT-29 tumor-bearing mice; Femur, 24 h): 0.11 ± 0.02 % ID/g | % ID/g (72 h) Femur (HT-29 tumor-bearing mice; Femur, 72 h): 0.06 ± 0.03 % ID/g | % ID/g (120 h) Femur (HT-29 tumor-bearing mice; Femur, 120 h): 0.07 ± 0.02 % ID/g | % ID/g (1 h) Heart (HT-29 tumor-bearing mice; Heart, 1 h): 5.28 ± 0.74 % ID/g | % ID/g (4 h) Heart (HT-29 tumor-bearing mice; Heart, 4 h): 1.31 ± 0.53 % ID/g | % ID/g (24 h) Heart (HT-29 tumor-bearing mice; Heart, 24 h): 0.16 ± 0.01 % ID/g | % ID/g (72 h) Heart (HT-29 tumor-bearing mice; Heart, 72 h): 0.11 ± 0.01 % ID/g | % ID/g (120 h) Heart (HT-29 tumor-bearing mice; Heart, 120 h): 0.05 ± 0.03 % ID/g | % ID/g (1 h) Intestine (HT-29 tumor-bearing mice; Intestine, 1 h): 2.84 ± 1.07 % ID/g | % ID/g (4 h) Intestine (HT-29 tumor-bearing mice; Intestine, 4 h): 1.71 ± 0.23 % ID/g | % ID/g (24 h) Intestine (HT-29 tumor-bearing mice; Intestine, 24 h): 0.66 ± 0.29 % ID/g | % ID/g (72 h) Intestine (HT-29 tumor-bearing mice; Intestine, 72 h): 0.29 ± 0.23 % ID/g | % ID/g (120 h) Intestine (HT-29 tumor-bearing mice; Intestine, 120 h): 0.19 ± 0.01 % ID/g | % ID/g (1 h) Kidney (HT-29 tumor-bearing mice; Kidney, 1 h): 4.41 ± 2.41 % ID/g | % ID/g (4 h) Kidney (HT-29 tumor-bearing mice; Kidney, 4 h): 1.73 ± 0.79 % ID/g | % ID/g (24 h) Kidney (HT-29 tumor-bearing mice; Kidney, 24 h): 1.43 ± 1.04 % ID/g | % ID/g (72 h) Kidney (HT-29 tumor-bearing mice; Kidney, 72 h): 0.7 ± 0.3 % ID/g | % ID/g (120 h) Kidney (HT-29 tumor-bearing mice; Kidney, 120 h): 0.4 ± 0.15 % ID/g | % ID/g (1 h) Liver (HT-29 tumor-bearing mice; Liver, 1 h): 4.35 ± 1.78 % ID/g | % ID/g (4 h) Liver (HT-29 tumor-bearing mice; Liver, 4 h): 2.59 ± 1.08 % ID/g | % ID/g (24 h) Liver (HT-29 tumor-bearing mice; Liver, 24 h): 0.85 ± 0.38 % ID/g | % ID/g (72 h) Liver (HT-29 tumor-bearing mice; Liver, 72 h): 0.57 ± 0.21 % ID/g | % ID/g (120 h) Liver (HT-29 tumor-bearing mice; Liver, 120 h): 0.24 ± 0.04 % ID/g | % ID/g (1 h) Lung (HT-29 tumor-bearing mice; Lung, 1 h): 4.47 ± 3.31 % ID/g | % ID/g (4 h) Lung (HT-29 tumor-bearing mice; Lung, 4 h): 1.81 ± 0.77 % ID/g | % ID/g (24 h) Lung (HT-29 tumor-bearing mice; Lung, 24 h): 0.35 ± 0.14 % ID/g | % ID/g (72 h) Lung (HT-29 tumor-bearing mice; Lung, 72 h): 0.23 ± 0.01 % ID/g | % ID/g (120 h) Lung (HT-29 tumor-bearing mice; Lung, 120 h): 0.07 ± 0.02 % ID/g | % ID/g (1 h) Muscle (HT-29 tumor-bearing mice; Muscle, 1 h): 2.2 ± 1.08 % ID/g | % ID/g (4 h) Muscle (HT-29 tumor-bearing mice; Muscle, 4 h): 0.44 ± 0.26 % ID/g | % ID/g (24 h) Muscle (HT-29 tumor-bearing mice; Muscle, 24 h): 0.05 ± 0.03 % ID/g | % ID/g (72 h) Muscle (HT-29 tumor-bearing mice; Muscle, 72 h): 0.03 ± 0.01 % ID/g | % ID/g (120 h) Muscle (HT-29 tumor-bearing mice; Muscle, 120 h): 0.04 ± 0.02 % ID/g | % ID/g (1 h) Pancreas (HT-29 tumor-bearing mice; Pancreas, 1 h): 1.48 ± 0.29 % ID/g | % ID/g (4 h) Pancreas (HT-29 tumor-bearing mice; Pancreas, 4 h): 0.38 ± 0.17 % ID/g | % ID/g (24 h) Pancreas (HT-29 tumor-bearing mice; Pancreas, 24 h): 0.07 ± 0.04 % ID/g | % ID/g (72 h) Pancreas (HT-29 tumor-bearing mice; Pancreas, 72 h): 0.03 ± 0.01 % ID/g | % ID/g (120 h) Pancreas (HT-29 tumor-bearing mice; Pancreas, 120 h): 0.04 ± 0.01 % ID/g | % ID/g (1 h) Spleen (HT-29 tumor-bearing mice; Spleen, 1 h): 1.73 ± 1.08 % ID/g | % ID/g (4 h) Spleen (HT-29 tumor-bearing mice; Spleen, 4 h): 0.71 ± 0.41 % ID/g | % ID/g (24 h) Spleen (HT-29 tumor-bearing mice; Spleen, 24 h): 0.14 ± 0.03 % ID/g | % ID/g (72 h) Spleen (HT-29 tumor-bearing mice; Spleen, 72 h): 0.08 ± 0.01 % ID/g | % ID/g (120 h) Spleen (HT-29 tumor-bearing mice; Spleen, 120 h): 0.1 ± 0.04 % ID/g | % ID/g (1 h) Stomach (HT-29 tumor-bearing mice; Stomach, 1 h): 2.58 ± 1.00 % ID/g | % ID/g (4 h) Stomach (HT-29 tumor-bearing mice; Stomach, 4 h): 0.76 ± 0.38 % ID/g | % ID/g (24 h) Stomach (HT-29 tumor-bearing mice; Stomach, 24 h): 0.14 ± 0.03 % ID/g | % ID/g (72 h) Stomach (HT-29 tumor-bearing mice; Stomach, 72 h): 0.06 ± 0.01 % ID/g | % ID/g (120 h) Stomach (HT-29 tumor-bearing mice; Stomach, 120 h): 0.061 ± 0.03 % ID/g | % ID/g (1 h) Tumor (HT-29 tumor-bearing mice; Tumor, 1 h): 17.04 ± 5.68 % ID/g | % ID/g (4 h) Tumor (HT-29 tumor-bearing mice; Tumor, 4 h): 16.52 ± 12.39 % ID/g | % ID/g (24 h) Tumor (HT-29 tumor-bearing mice; Tumor, 24 h): 20.35 ± 2.62 % ID/g | % ID/g (72 h) Tumor (HT-29 tumor-bearing mice; Tumor, 72 h): 9.3 ± 7.53 % ID/g | % ID/g (120 h) Tumor (HT-29 tumor-bearing mice; Tumor, 120 h): 6.42 ± 3.46 % ID/g | clearance from other organs or tissues (SPECT/CT) [1]: rapid clearance | retention in tumors (SPECT/CT) [1]: sustained retention in tumors
